Results on 1 compound are retold here after patent publication US20240277743A1, “RESTORING PHYSIOLOGY WITH SMALL MOLECULE MIMICS OF MISSING PROTEINS” (The Board of Trustees Of The University Of Illinois, priority 2014, published 2024).

Common to all, as to format: cell-based, Saccharomyces cerevisiae
Data set [1] concerns trk1Δtrk2Δ yeast. Nature of the data set: Sustainable restoration of cell growth assay (max OD600, doubling time). As for the experimental part: Sustainable restoration of cell growth assay. Wild type and trk1 Δtrk2Δ yeast were treated as described in the functional complementation experiment described above, with the trk1 Δtrk2Δ yeast treated with 125 nM AmB. The OD600 was measured every hour for 24 hours, including a reading at time zero. Wild type yeast were then streaked onto normal potassium YPAD agar plates and AmB-rescued TrklAtrk2Δ yeast were streaked onto AmB-containing (0.125 μM) normal potassium YPAD agar plates. These agar plates were then incubated at 30° ° C. for about 48 hours. The same procedure was then repeated for over 42 days, measuring the max OD600 and doubling time every three days. Doubling time was determined using the following equation: Td=(t2−t1)×[log(2)/log (q2/q1)], where t2 and t1 represent the time at the two points and q2 and q1 represent the OD600 values in the exponential phase of growth (OD600 from 0.2 to 0.6).

Data set [2] concerns trk1Δtrk2Δ cells. Nature of the data set: Disc diffusion assay of growth rescue. The following applies: paper disc impregnated with AmB; FIG. 2C. As for the experimental part: Disc diffusion assay. The assay was performed as previously described. National Committee for Clinical Laboratory Standards in Performance Standards for Antimicrobial Disk Susceptibility Tests; M2-A8 Approved Standard (NCCLS, Wayne) (2003).
For orientation: In agar diffusion tests the substance spreads into inoculated agar from a disc or well.

Data set [3] relates to trk1Δtrk2Δ cells. Kind of data set: Cell viability assay (propidium iodide staining). The following applies: 125 nM AmB, 24 hours, FIG. 2H. As for the experimental part:
Cell viability assay. WT and trk1 Δtrk2Δ cells were inoculated in high potassium (100 mM KCl) YPAD. Starter cultures were grown at 30° ° C. for 14-15 hours. Cells were then cultured in high potassium YPAD at 30° ° C. for 2-2.5 hours. 100 μL of a 0.25 mg/mL propidium iodide (PI. Sigma-Aldrich P4864) solution was prepared. After 2-2.5 hours, cells were centrifuged at 800 g for 5 minutes, at 23° C. The supernatant was decanted, cells were resuspended in 40 mL of high potassium YPAD, vortexed, and centrifuged. The wash step was repeated. After pouring off the supernatant, cells were resuspended in 15 mL of high potassium YPAD, vortexed, and diluted to an OD600 of 0.5. To set one (WT, WT+PI, trk1Δtrk2Δ, and trk1Δtrk2Δ+PI) and set two (WT+PI+AmB, trk1 Δtrk2Δ+PI+AmB), 26.4 μL of DMSO were added to 1 mL aliquots of WT and trk1Δtrk2Δ, and incubated at 30° C. for 30 minutes. A 1% w/v low gelling temperature agarose (Sigma-Aldrich A9414) was prepared in normal potassium (10 mM) YPAD. When set one incubation completed, cells were pulse centrifuged, supernatant was removed, and resuspended in normal potassium YPAD to wash. […] The total number of PI stained cells was subtracted from the total cells recorded, and divided by total cells to give % viability. At least 200 cells were recorded per treatment group and 4 independent sets of data were obtained.

Data set [4] has as its system small molecule-rescued trk1Δtrk2Δ cells versus wild type. Kind of data set: Probing sensitivities to known chemical inhibitors assay. The note with it: FIG. 3E legend. As to the method:
Probing sensitivities to known chemical inhibitors assay. Overnight cultures were grown as described in the MIC assay. Prior to harvesting cells, small molecules AmB, nystatin A1 (Riedel-de-Haen), candicidin (TOKU-E), or mepartricin (Santa Cruz Biotechnology) and chemical inhibitors nocodazole (Sigma-Aldrich), ebselen (Cayman Chemical), or bafilomycin BI (Santa Cruz Biotechnology were prepared as stock solutions in DMSO. Saturated cell cultures were centrifuged for 5 minutes at 1000×g. The supernatant was poured off, and cells were resuspended in sterile MilliQ water. Cells were centrifuged again, and supernatant was poured off. The wash step was repeated. The supernatant was poured off, and cells were resuspended in normal potassium YPAD. Cells were diluted with normal potassium YPAD to an OD600 of 0.01. Next, an appropriate volume of AmB, nystatin A1, candicidin, or mepartricin was added to give a final rescuing concentration of 125 nM, 1000 nM, 8 nM, and 8 nM, respectively. A control was prepared by adding the corresponding volume of DMSO to trk1Δtrk2Δ cells. 195 μL of WT+small molecule, 195 μL of trk1Δtrk2Δ+small molecule, and 195 μL of trk1Δtrk2Δ+DMSO were added to a 96 well plate. Next, 5 μL of DMSO or chemical inhibitor was added to each well, with each concentration tested in triplicate for both WT and trk1Δtrk2Δ . The plate was covered and incubated at 30° C. for 24 hours. A BioTek Synergy H1 Hybrid Reader was used to measure the OD600. Utilizing GraphPad PRISM, data were fitted by nonlinear regression, inhibition dose response, variable slope (four parameters) to yield EC50 values with SEM. For statistical analysis, EC50 values from the two treatment groups were compared by unpaired t-test.

In the case of `C[C@@H]1[C@H](O)[C@@H](C)/C=C/C=C/C=C/C=C/C=C/C=C/C=C/[C@H](O[C@@H]2O[C@H](C)[C@@H](O)[C@H](N)[C@@H]2O)C[C@@H]2O[C@](O)(C[C@@H](O)C[C@@H](O)[C@H](O)CC[C@@H](O)C[C@@H](O)CC(=O)O[C@H]1C)C[C@H](O)[C@H]2C(=O)O` [AmB, amphotericin B], the “doubling time of AmB-rescued trk1Δtrk2Δ cells relative to wild type” value in data set [1] (125 nM AmB) is 1.7 times longer. Moreover, the “sustainability of cell growth of AmB-rescued trk1Δtrk2Δ cells” value in data set [1] (125 nM AmB, passed every 3 days for over a month, FIG. 2I) is listed as “sustained, vigorous cell growth”. Further, the “maximum cell density (max OD600) of treated trk1Δtrk2Δ cells” value in data set [1] (liquid culture after 24 h, versus wild type, FIG. 2G) is “matched that of the wild type”. The “growth rescue in disc diffusion assay” value in data set [2] was “dependence of the growth rescue on the concentration of AmB”. For the same compound, the “cell viability of AmB-rescued trk1Δtrk2Δ cells versus wild type” value in data set [3] was “Equivalent levels of cell viability”. In addition, in data set [4], the “optimum rescue concentration for trk1Δtrk2Δ cells” value was 0.5 µM.
